{"source": "patent US11197862B2", "about": "“Methods of preventing toxicity of platinum drugs” (XOMICS BIOPHARMA, INC., priority 2015, dated 2021)", "key": {"[1]": {"system": "HepG2 cells", "assay": "Anti-proliferation study (SRB assay) in HepG2 cells", "details": "FIG. 10"}, "[2]": {"system": "Balb/c mice exposed to chronic treatment with Oxaliplatin", "assay": "Sciatic nerve histology, g-ratio, in chronic oxaliplatin neuropathy model", "assay_type": "in vivo, mouse", "details": "OXA 3.5 mg/kg iv, 8 cycles ± BFMD 30 mg/kg ip + 15 mg/kg iv", "procedure": "After completion of behavioral and electrophysiological analysis, animals were killed and sciatic nerves were dissected, fixed, stained for myelin and cut as semithin sections. Light microscopy was performed to capture an image of the entire nerve which was then subjected to semi-automatic software-based nerve morphometry in order to assess axon diameter and myelin thickness 20.\nTo assess changes in nerve cell myelination, we calculated the g ratio of nerve fibers (g-ratio denominates the numerical ratio between the diameter of the axon and the outer diameter of the myelinated fiber; hypomyelination in sciatic nerves, which is associated with platinum neurotoxicity (Boehmerle, W., et al. Sci. Rep. 4, 6370), would thus cause an increase of the g-ratio)."}, "[3]": {"system": "MDCK cells expressing OCT2, MATE1 and MATE2K", "assay": "LDH cytotoxicity of cisplatin in MDCK-II triple-transporter model", "assay_type": "cell-based, canine", "details": "6 μM buflomedil; 1 mM cisplatin; FIG. 7", "procedure": "A triple-transporter model for OCT2(SLC22A2), MATE1(SLC47A1), and MATE2-K(SLC47A2) was created by transfecting fully confluent MDCK-II cell monolayers with DNA mixture containing the plasmids encoding OCT2, MATE1, and MATE-2K at concentrations of 40, 15, and 5 ng/μl, respectively. […] This systems were cultured in complete medium consisting of Dulbecco's modified Eagle's medium without phenyl-red with 10% fetal bovine serum in an atmosphere of 5% CO2-95% air at 37° C. The apical medium was adjusted to pH 6.7 with 25 mM of 2-(N-morpholino) ethanesulfonic acid (MES).\nDolutegravir was tested at 10 μM. […] Cytotoxicity was tested using the same procedure described above."}, "[4]": {"assay": "Plasma levels of buflomedil and oxaliplatin in the chronic model", "assay_type": "in vivo, mouse", "details": "15 minutes after the 8th cycle", "procedure": "At baseline (before drug treatment) and at the end of treatment, caudal nerve conduction study (NCS), behavioral tests (Dynamic and Cold Plate), histopathology study were performed. Serum samples were collected at the end of treatment."}, "[5]": {"system": "Balb/c mice exposed to acute treatment with Oxaliplatin", "assay": "Dynamic test (mechanical pain threshold) after a single oxaliplatin administration", "assay_type": "in vivo, mouse", "details": "24 hours after single OXA 3.5 mg/kg iv, DTG 4 mg/kg ip 1 hour before, CPC 4 mg/kg iv co-administered", "procedure": "OXA vehicle, OXA, CPC, DTG, DTG+OXA and CPC+OXA were administered once time. In the group co-administered with OXA and DTG. DTG was injected intraperitoneally 1 hour before the administration of OXA. In the group co-administered with OXA and CPC, CPC was co-administered with OXA intravenously. Mechanical allodynia and cold sensory threshold (dynamic test and cold plate test) were performed 24 and 48 hours after the treatment, respectively, using the methods described in EXAMPLE 15 Plasma Sample Collection"}, "[6]": {"assay": "Dolutegravir plasma concentration in Balb/C mice after PO, IV and IP administration", "assay_type": "in vivo, mouse", "details": "10 mg/kg PO, 4 mg/kg IV, 4 mg/kg IP", "procedure": "Male mice of 6-7 weeks of age were obtained from Charles River and allowed to acclimate for 3-5 days. The mice were weighed and individually identified (tail marked). The mice (n=3) in the oral (PO) group were fasted overnight and orally gavaged with 10 mg/kg of Dolutegravir. The second group of mice (n=3) were intravenously (IV) injected with 4 mg/kg of Dolutegravir. The third group of mice (n=3) were intraperitoneally (IP) injected with 4 mg/kg of Dolutegravir. At 10 min, 0.5 h, 1 h post dosing. ˜120 μl of blood sample was collected from the IV and IP mice by orbital venous sinus bleeding. At 1 h, 2 h, 4 h post dosing, ˜120 μl of blood sample was collected from the PO mice by orbital venous sinus bleeding. […] For analysis, the plasma samples were diluted into the calibration range as needed. […] The calibration curve was extracted in the same way as the unknown samples. The final extracts were analyzed by LC-MS/MS using positive electrospray ionizations under the multiple-reaction-monitoring (MRM) mode for the detection of Dolutegravir. The standard curve fitted by linear regression was used to quantify the analyte in the matrix using Analyst 1.6.2 software (AB Sciex)."}, "[7]": {"molecular_target": "T1, OCT2 over OCT3, MATE1 and MATE2K (Homo sapiens, UniProt O15244)", "T1 sequence (O15244 1-555)": "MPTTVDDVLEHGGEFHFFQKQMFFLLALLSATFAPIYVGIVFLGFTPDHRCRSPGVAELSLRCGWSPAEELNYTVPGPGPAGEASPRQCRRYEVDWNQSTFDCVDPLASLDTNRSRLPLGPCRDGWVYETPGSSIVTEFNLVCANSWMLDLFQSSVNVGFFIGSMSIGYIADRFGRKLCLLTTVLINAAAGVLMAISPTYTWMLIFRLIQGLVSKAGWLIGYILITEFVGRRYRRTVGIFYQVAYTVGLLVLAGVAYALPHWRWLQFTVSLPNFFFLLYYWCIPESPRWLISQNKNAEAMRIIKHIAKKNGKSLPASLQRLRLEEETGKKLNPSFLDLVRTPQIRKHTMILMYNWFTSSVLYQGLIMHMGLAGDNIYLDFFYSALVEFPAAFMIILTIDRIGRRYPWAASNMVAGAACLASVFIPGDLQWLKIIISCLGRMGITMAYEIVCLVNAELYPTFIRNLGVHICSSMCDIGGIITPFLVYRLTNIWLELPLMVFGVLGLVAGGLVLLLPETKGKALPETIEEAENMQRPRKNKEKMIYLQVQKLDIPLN", "assay": "Inhibition of OCT2-mediated oxaliplatin transport in 100% human serum or HBSS containing 4% BSA (IC50,app)", "details": "human, MDCK-II cells transfected with human transporters, selectivity between OCT2 and OCT3, MATE1 and MATE2K, oxaliplatin transport"}, "[8]": {"details": "human, in vivo"}}}
{"smiles": "COc1cc(OC)c(C(=O)CCCN2CCCC2)c(OC)c1", "note": "[Buflomedil, 4-pyrrolidin-1-yl-1-(2,4,6-trimethoxyphenyl)butan-1-one]", "values": [{"measurement": "effect on anti-tumor potency of oxaliplatin in HepG2", "setting": "[1]", "result": "not buflomedil"}, {"measurement": "sciatic nerve G-ratio (hypomyelination)", "setting": "[2]; listed as BFMD", "result": "reduction in G-ratio of the OXA+BFMD group vs OXA group"}, {"measurement": "sciatic nerve G-ratio (hypomyelination)", "setting": "[2]; listed as buflomedil", "result": "effective on reducing sciatic nerve damage"}, {"measurement": "effect on cisplatin cytotoxicity", "setting": "[3]", "result": "significantly reduced cytotoxicity from 1 mM of cisplatin"}, {"measurement": "pharmacokinetic interaction between BFMD and OXA (plasma levels)", "setting": "[4]", "result": "No pharmacokinetic interaction was observed"}, {"measurement": "plasma level at the end of the study", "setting": "[4]; BFMD 30 mg/kg ip + 15 mg/kg iv", "result": "> 1720", "unit": "ng/mL"}]}
{"smiles": "C[C@@H]1CCO[C@H]2Cn3cc(C(=O)NCc4ccc(F)cc4F)c(=O)c(O)c3C(=O)N12", "note": "[Dolutegravir]", "values": [{"measurement": "Mechanical Pain Threshold (MPT), mechanical hypersensitivity", "setting": "[5]", "result": "effective on reducing mechanical hypersensitivity"}, {"measurement": "Mechanical Pain Threshold (MPT), mechanical hypersensitivity", "setting": "[5]; listed as DTG", "result": "nearly completely alleviated mechanical hypersensitivity"}, {"measurement": "effect of route of administration on plasma exposure", "setting": "[6]", "result": "route of administration significantly affected dolutegravir plasma exposure"}]}
{"smiles": "Clc1ccc(COC(Cn2ccnc2)c2ccc(Cl)cc2Cl)c(Cl)c1", "note": "(centres unmarked) [Miconazole]", "values": [{"measurement": "selectivity ratio", "setting": "[7]", "result": "> 10"}, {"measurement": "Plasma peak unbound concentration Cmax,u", "setting": "[8]", "result": 1190, "unit": "nM"}]}
